Laboratory results: patent US10322999B2, “Oxindoles derivatives, preparation method thereof and pharmaceutical compositions for the prevention or treatment of cancer containing the same as an active ingredient” (RESEARCH & BUSINESS FOUNDATION SUNGKYUNKWAN UNIVERSITY, priority 2017, dated 2019)

system: human breast cancer cell line (MCF-7); assay: MTT assay, growth inhibition of MCF-7 cells; assay type: cell-based; settings: MCF7, 48 h, read-out: MCF-7 (IC50, μM)
Protocol: (§1) To evaluate the anticancer activity of the oxindole derivatives produced and analyzed in examples 1 to 8, MTT assay was performed to confirm the growth inhibitory effect on cancer cells. More specifically, human prostate adenocarcinoma cell line (LNCaP), human breast cancer cell line (MCF-7), human ovarian cancer cell line (SKOV3), human lung cancer cell line […] and human renal adenocarcinoma cell line (786-O) were cultured in DMEM medium supplemented with 1% penicillin/streptomycin and 10% fetal bovine serum (All from Life Technologies, Grand Island, N.Y.). Cells were seeded in 96-well plates (3×10^3 cells/well) containing 100 μL of growth medium for 24 hours. After the medium was removed, 100 μL of each of the different analogues (dissolved in DMSO to 0.025% or less) was added to each well and cultured at 37° C. for 48 hours. After 48 hours of incubation, 100 μL of MTT reagent was added to each well. After incubation at 37° C. for 4 hours, the supernatant was aspirated, and the formazan crystals were dissolved in 100 μL of DMSO at 37° C. for 10 minutes with gentle stirring. Absorbance per well was measured at 540 nm using a VERSA max microplate reader (Molecular Devices Corp.). IC50 values were defined as compound concentrations that inhibited cell proliferation by 50% compared to cells treated with the highest amount of DMSO (0.025%) and were considered to be 100% viability.

| Structure (SMILES) | IC50 [µM] |
| --- | --- |
| CCOC(=O)NC(=O)CC1C(=O)N(Nc2ccccc2CC)c2c(CC)cccc21 (stereo not shown) [4h, Ethyl (2-(7-ethyl-1-((2-ethylphenyl)amino)-2-oxoindolin-3-yl)acetyl)carbamate] | > 50 |
| CCc1ccccc1NN1C(=O)C(CC(=O)N[C@@H](C)C(=O)OC)c2cccc(CC)c21 (stereo partly drawn) [4j, Methyl (2-(7-ethyl-1-((2-ethylphenyl)amino)-2-oxoindolin-3-yl)acetyl)-L-alaninate] | > 50 |

same assay, conditions: MCF7, MTT, 48 hours incubation, MCF-7, read-out: MCF-7 (IC50)

| Structure (SMILES) | IC50 [µM] |
| --- | --- |
| CNC(=O)CC1C(=O)N(Nc2ccccc2C)c2c(C)cccc21 (stereo not shown) [3b, N-Methyl-2-(7-methyl-2-oxo-1-(o-tolylamino)indolin-3-yl)acetamide] | > 50 |
| CNC(=O)CC1C(=O)N(Nc2cccc(C)c2C)c2c1ccc(C)c2C (stereo not shown) [3c, 2-(1-((2,3-Dimethylphenyl)amino)-6,7-dimethyl-2-oxoindolin-3-yl)-N-methylacetamide] | > 50 |
| CNC(=O)CC1C(=O)N(Nc2cccc(F)c2C)c2c1ccc(F)c2C (stereo not shown) [3d, 2-(6-Fluoro-1-((3-fluoro-2-methylphenyl)amino)-7-methyl-2-oxoindolin-3-yl)-N-methylacetamide] | > 50 |

system: human lung cancer cell line (A459); assay: MTT assay, growth inhibition of A549 cells; assay type: cell-based; settings: Homo sapiens, 48 h, read-out: A549 (IC50, μM)
Protocol: as §1

| Structure (SMILES) | IC50 [µM] |
| --- | --- |
| CCOC(=O)NC(=O)CC1C(=O)N(Nc2ccccc2CC)c2c(CC)cccc21 (stereo not shown) [4h, Ethyl (2-(7-ethyl-1-((2-ethylphenyl)amino)-2-oxoindolin-3-yl)acetyl)carbamate] | > 50 |
| CCc1ccccc1NN1C(=O)C(CC(=O)N[C@@H](C)C(=O)OC)c2cccc(CC)c21 (stereo partly drawn) [4j, Methyl (2-(7-ethyl-1-((2-ethylphenyl)amino)-2-oxoindolin-3-yl)acetyl)-L-alaninate] | > 50 |

same assay, conditions: Homo sapiens; MTT, 48 hours incubation, A549; read-out: A549 (IC50)

| Structure (SMILES) | IC50 [µM] |
| --- | --- |
| CNC(=O)CC1C(=O)N(Nc2ccccc2C)c2c(C)cccc21 (stereo not shown) [3b, N-Methyl-2-(7-methyl-2-oxo-1-(o-tolylamino)indolin-3-yl)acetamide] | > 50 |
| CNC(=O)CC1C(=O)N(Nc2cccc(C)c2C)c2c1ccc(C)c2C (stereo not shown) [3c, 2-(1-((2,3-Dimethylphenyl)amino)-6,7-dimethyl-2-oxoindolin-3-yl)-N-methylacetamide] | > 50 |
| CNC(=O)CC1C(=O)N(Nc2cccc(F)c2C)c2c1ccc(F)c2C (stereo not shown) [3d, 2-(6-Fluoro-1-((3-fluoro-2-methylphenyl)amino)-7-methyl-2-oxoindolin-3-yl)-N-methylacetamide] | > 50 |

system: human renal adenocarcinoma cell line (786-O); assay: MTT assay, growth inhibition of 786-O cells; assay type: cell-based; settings: Homo sapiens, 786-0, 48 h, read-out: 786-O (IC50, μM)
Protocol: as §1

| Structure (SMILES) | IC50 [µM] |
| --- | --- |
| CCOC(=O)NC(=O)CC1C(=O)N(Nc2ccccc2CC)c2c(CC)cccc21 (stereo not shown) [4h, Ethyl (2-(7-ethyl-1-((2-ethylphenyl)amino)-2-oxoindolin-3-yl)acetyl)carbamate] | > 50 |
| CCc1ccccc1NN1C(=O)C(CC(=O)N[C@@H](C)C(=O)OC)c2cccc(CC)c21 (stereo partly drawn) [4j, Methyl (2-(7-ethyl-1-((2-ethylphenyl)amino)-2-oxoindolin-3-yl)acetyl)-L-alaninate] | > 50 |

same assay, conditions: Homo sapiens, 786-0; MTT, 48 hours incubation, 786-O; read-out: 786-O (IC50)

| Structure (SMILES) | IC50 [µM] |
| --- | --- |
| CNC(=O)CC1C(=O)N(Nc2ccccc2C)c2c(C)cccc21 (stereo not shown) [3b, N-Methyl-2-(7-methyl-2-oxo-1-(o-tolylamino)indolin-3-yl)acetamide] | > 50 |
| CNC(=O)CC1C(=O)N(Nc2cccc(C)c2C)c2c1ccc(C)c2C (stereo not shown) [3c, 2-(1-((2,3-Dimethylphenyl)amino)-6,7-dimethyl-2-oxoindolin-3-yl)-N-methylacetamide] | 40.9 |
| CNC(=O)CC1C(=O)N(Nc2cccc(F)c2C)c2c1ccc(F)c2C (stereo not shown) [3d, 2-(6-Fluoro-1-((3-fluoro-2-methylphenyl)amino)-7-methyl-2-oxoindolin-3-yl)-N-methylacetamide] | > 50 |

system: human ovarian cancer cell line (SKOV3); assay: MTT assay, growth inhibition of SKOV3 cells; assay type: cell-based; settings: SK-OV-3, 48 h, read-out: SKOV3 (IC50, μM)
Protocol: as §1

| Structure (SMILES) | IC50 [µM] |
| --- | --- |
| CCOC(=O)NC(=O)CC1C(=O)N(Nc2ccccc2CC)c2c(CC)cccc21 (stereo not shown) [4h, Ethyl (2-(7-ethyl-1-((2-ethylphenyl)amino)-2-oxoindolin-3-yl)acetyl)carbamate] | > 50 |
| CCc1ccccc1NN1C(=O)C(CC(=O)N[C@@H](C)C(=O)OC)c2cccc(CC)c21 (stereo partly drawn) [4j, Methyl (2-(7-ethyl-1-((2-ethylphenyl)amino)-2-oxoindolin-3-yl)acetyl)-L-alaninate] | > 50 |

same assay, conditions: SK-OV-3, MTT, 48 hours incubation, SKOV3, read-out: SKOV3 (IC50)

| Structure (SMILES) | IC50 [µM] |
| --- | --- |
| CNC(=O)CC1C(=O)N(Nc2ccccc2C)c2c(C)cccc21 (stereo not shown) [3b, N-Methyl-2-(7-methyl-2-oxo-1-(o-tolylamino)indolin-3-yl)acetamide] | > 50 |
| CNC(=O)CC1C(=O)N(Nc2cccc(C)c2C)c2c1ccc(C)c2C (stereo not shown) [3c, 2-(1-((2,3-Dimethylphenyl)amino)-6,7-dimethyl-2-oxoindolin-3-yl)-N-methylacetamide] | > 50 |
| CNC(=O)CC1C(=O)N(Nc2cccc(F)c2C)c2c1ccc(F)c2C (stereo not shown) [3d, 2-(6-Fluoro-1-((3-fluoro-2-methylphenyl)amino)-7-methyl-2-oxoindolin-3-yl)-N-methylacetamide] | > 50 |

system: human prostate adenocarcinoma cell line (LNCaP); assay: MTT assay, growth inhibition of LNCaP cells; assay type: cell-based; settings: Homo sapiens, LNCaP, 48 h, read-out: LNCaP (IC50, μM)
Protocol: as §1

| Structure (SMILES) | IC50 [µM] |
| --- | --- |
| CCOC(=O)NC(=O)CC1C(=O)N(Nc2ccccc2CC)c2c(CC)cccc21 (stereo not shown) [4h, Ethyl (2-(7-ethyl-1-((2-ethylphenyl)amino)-2-oxoindolin-3-yl)acetyl)carbamate] | > 50 |
| CCc1ccccc1NN1C(=O)C(CC(=O)N[C@@H](C)C(=O)OC)c2cccc(CC)c21 (stereo partly drawn) [4j, Methyl (2-(7-ethyl-1-((2-ethylphenyl)amino)-2-oxoindolin-3-yl)acetyl)-L-alaninate] | > 50 |

same assay, conditions: Homo sapiens; MTT, 48 hours incubation, LNCaP; read-out: LNCaP (IC50)

| Structure (SMILES) | IC50 [µM] |
| --- | --- |
| CNC(=O)CC1C(=O)N(Nc2ccccc2C)c2c(C)cccc21 (stereo not shown) [3b, N-Methyl-2-(7-methyl-2-oxo-1-(o-tolylamino)indolin-3-yl)acetamide] | > 50 |
| CNC(=O)CC1C(=O)N(Nc2cccc(C)c2C)c2c1ccc(C)c2C (stereo not shown) [3c, 2-(1-((2,3-Dimethylphenyl)amino)-6,7-dimethyl-2-oxoindolin-3-yl)-N-methylacetamide] | 44.6 |
| CNC(=O)CC1C(=O)N(Nc2cccc(F)c2C)c2c1ccc(F)c2C (stereo not shown) [3d, 2-(6-Fluoro-1-((3-fluoro-2-methylphenyl)amino)-7-methyl-2-oxoindolin-3-yl)-N-methylacetamide] | > 50 |
